The numbers were not newly measured in patent US20250066691A1, “SOLVENT-BASED DETERGENT COMPOSITIONS AND METHODS FOR HYDROPHOBIC SOIL REMOVAL” (ECOLAB USA INC., priority 2023, published 2025), which cites them from elsewhere.

By LogP is commonly meant the decadic logarithm of the partition coefficient of the neutral form, usually between octanol and water.

Where a name gives a salt, the structure may show the parent alone.

For the data set the following is noted: obtained from PubChem.

Regarding `CCCCC(CC)COCCO` (stereo not shown) [2-2(2-Ethylhexyloxy)ethanol], the LogP is 2.5 and the “Topological Polar Surface Area (Å^2)” value is reported as 29.5 Å^2.

For `CCCCC(CC)COC(=O)[C@H](C)O` (stereo partly drawn) [2-Ethylhexyl Lactate, 2-Ethylhexyl L-Lactate], the LogP is on record as 3 and the “Topological Polar Surface Area (Å^2)” value is given as 46.5 Å^2.

Turning to `OCc1ccccc1` [Benzyl Alcohol], the “Topological Polar Surface Area (Å^2)” value is recorded as 20.2 Å^2.

Turning to `CCCCCCOCCOCCO` [Diethylene glycol monohexyl ether], the “Topological Polar Surface Area (Å^2)” value is given as 38.7 Å^2.

`CC(C)COC(=O)CCCCC(=O)OCC(C)C` [Diisobutyl Adipate]: the LogP was 3.2 and the “Topological Polar Surface Area (Å^2)” value is 52.6 Å^2.

Consider `CCCCCCCCCCCCO` [Dodecanol (Lauryl Alcohol), Dodecanol], for which the LogP is 5.1 and the “Topological Polar Surface Area (Å^2)” value is 20.2 Å^2.

As for `CCOC(=O)C(C)O` (stereo not shown) [Ethyl Lactate], the LogP is recorded as 0.2 and the “Topological Polar Surface Area (Å^2)” value is given as 46.5 Å^2.

In the case of `CC(=O)OCC(COC(C)=O)OC(C)=O` [Glycerol Triacetate], the log partition coefficient (LogP) is 0.2 and the “Topological Polar Surface Area (Å^2)” value is 78.9 Å^2.

On to `CCCCCCO` [Hexanol], for which the “Topological Polar Surface Area (Å^2)” value is reported as 20.2 Å^2.

As for `C=C(C)[C@H]1CC=C(C)CC1` [Limonene], the LogP was 3.4 and the “Topological Polar Surface Area (Å^2)” value is listed as 0 Å^2.

Consider `CCCCCCCC(=O)O` [Octanoic acid], for which the “Topological Polar Surface Area (Å^2)” value is 37.3 Å^2.

On to `CC(O)COc1ccccc1` (stereo not shown) [Propylene glycol phenyl ether], for which the LogP is listed as 1.7 and the “Topological Polar Surface Area (Å^2)” value is 38.7 Å^2.

With `Cc1ccccc1` [Toluene], the “Topological Polar Surface Area (Å^2)” value was 0 Å^2.

As for `CCOC(=O)CC(O)(CC(=O)OCC)C(=O)OCC` [Triethyl Citrate], the LogP is recorded as 0.1 and the “Topological Polar Surface Area (Å^2)” value was 99.1 Å^2.

For the compound `CCCCOC(C)COC(C)COC(C)CO` (stereo not shown) [Tripropylene glycol butyl ether], the LogP is listed as 2.9 and the “Topological Polar Surface Area (Å^2)” value is on record as 47.9 Å^2.
